This note sets out measurements from patent US20250352587A1, “PROBIOTIC AND USE THEREOF” (priority 2023, published 2025).

Values after ≈ are worked out from the molar mass of the structure shown. Where two headings read alike, the source gives them in different places.

One assay relates to Lsali-1. Description: Antibiotic susceptibility test, broth dilution MIC. The format is cell-based, Lactobacillus salivarius. The note with it: anaerobic, 37° C., 46-48 h; for MIC: Ligilactobacillus salivarius, read-out: MIC against Lsali-1. How it is done: (§1) According to the requirements for antibiotic susceptibility tests of anaerobic bacteria in “Technical specification on antimicrobial susceptibility tests” (Standard No. WS/T 639-2018) of the People's Republic of China Health Industry Standard, the susceptibility of the strains to antibiotics was determined by a broth dilution method, and the MIC values were recorded.
(§2) 0.1 mL of the prepared 5 bacterial suspensions were sequentially pipetted into 96-well plates containing equal volumes of prepared antibacterial drugs, such that the final concentration of the inoculated bacteria was 5×10^5 CFU/mL, and the drug concentrations were 256 μg/mL, 128 μg/mL, 64 μg/mL, 32 μg/mL, 16 μg/mL, 8 μg/mL, 4 μg/mL, 2 μg/mL, 1 μg/mL, 0.5 μg/mL, 0.25 μg/mL, and 0.125 μg/mL, respectively. Incubation: The above 96-well plates were anaerobically incubated in an incubator at 37° C. for 46-48 h.

For another assay, the system named is Lferm-1. Description: Antibiotic susceptibility test, broth dilution MIC. The note with it: for MIC: Limosilactobacillus fermentum, read-out: MIC against Lferm-1. The format is cell-based, Limosilactobacillus fermentum. How it is done: as §1, §2
Another assay has as its system Eaviu-1. Description: Antibiotic susceptibility test, broth dilution MIC. Type of assay: cell-based, Enterococcus avium. The settings on record: for MIC: Enterococcus avium, read-out: MIC against Eaviu-1. On the procedure: as §1, §2
The subject of another assay is Pdist-1. The assay is described as follows: Antibiotic susceptibility test, broth dilution MIC. The format is cell-based, Parabacteroides distasonis. The settings on record: for MIC: Parabacteroides distasonis, read-out: MIC against Pdist-1. How it is done:
as §1, §2

For the next assay, the system named is Bbifi-1. Description: Antibiotic susceptibility test, broth dilution MIC. The format is cell-based, Bifidobacterium bifidum. The note with it: for MIC: Bifidobacterium bifidum, read-out: MIC against Bbifi-1. On the procedure:
as §1, §2

The subject of another assay is colon injury. Description: Colon histopathology (HE staining) in mice with 5-FU-induced diarrhea. Type of assay: in vivo. The note with it: panels 1A and 2A in FIG. 13. On the procedure: After the animal experiment, the middle colon of the mice was collected and fixed in 4% paraformaldehyde for 24 h. The fixed colon tissues were sequentially dehydrated, transparentized, waxed, and embedded. The embedded paraffin blocks of colon tissues were sectioned at a thickness of 5 μm, followed by spreading and baking, and the dried sections were subjected to conventional HE staining. The pathological changes were observed under an optical microscope. Pathological scoring was performed according to Table 6 below, and the total pathological scores (the sum of the scores of all indices) were calculated.

Setting [1] is: broth dilution, anaerobic, 37° C., 46-48 h.

As to `CC1(C)S[C@@H]2[C@H](NC(=O)[C@H](N)c3ccccc3)C(=O)N2[C@H]1C(=O)O` [Ampicillin], the MIC amounted to 4 µg/mL (≈ 11.4 µM) in the assay on Lsali-1; 0.5 µg/mL (≈ 1.43 µM) in the assay with Lferm-1 (setting [1]); 4 µg/mL (≈ 11.4 µM) with Eaviu-1 (setting [1]); 8 µg/mL (≈ 22.9 µM) in the assay on Pdist-1 (setting [1]); 0.25 µg/mL (≈ 0.715 µM) in the assay with Bbifi-1 (setting [1]).

Consider `CO/N=C(\C(=O)N[C@@H]1C(=O)N2C(C(=O)O)=C(CSc3nc(=O)c(=O)[nH]n3C)CS[C@H]12)c1csc(N)n1` [Ceftriaxone], for which the MIC in the assay on Pdist-1 (setting [1]) amounted to 16 µg/mL (≈ 28.9 µM).

In the case of `O=C(N[C@H](CO)[C@H](O)c1ccc([N+](=O)[O-])cc1)C(Cl)Cl` [Chloramphenicol], the MIC is 256 µg/mL (≈ 792 µM) in the assay on Lsali-1, 0.125 µg/mL (≈ 0.387 µM) with Lferm-1 (setting [1]), 128 µg/mL (≈ 396 µM) with Eaviu-1 (setting [1]) and 8 µg/mL (≈ 24.8 µM) in the assay with Bbifi-1 (setting [1]).

In the case of `CCC[C@@H]1C[C@@H](C(=O)N[C@@H]([C@H]2O[C@H](SC)[C@H](O)[C@@H](O)[C@H]2O)[C@H](C)Cl)N(C)C1` [Clindamycin], the MIC was 8 µg/mL (≈ 18.8 µM) in the assay with Lsali-1; under 0.125 µg/mL with Lferm-1 (setting [1]); 4 µg/mL (≈ 9.41 µM) in the assay with Eaviu-1 (setting [1]); 16 µg/mL (≈ 37.6 µM) with Pdist-1 (setting [1]); 1 µg/mL (≈ 2.35 µM) in the assay with Bbifi-1 (setting [1]).

`CC[C@H]1OC(=O)[C@H](C)[C@@H](O[C@H]2C[C@@](C)(OC)[C@@H](O)[C@H](C)O2)[C@H](C)[C@@H](O[C@@H]2O[C@H](C)C[C@H](N(C)C)[C@H]2O)[C@](C)(O)C[C@@H](C)C(=O)[C@H](C)[C@@H](O)[C@]1(C)O` [Erythromycin]: the minimum inhibitory concentration (MIC) is 0.125 µg/mL (≈ 0.17 µM) with Lsali-1; under 0.125 µg/mL with Lferm-1 (setting [1]); 0.25 µg/mL (≈ 0.341 µM) in the assay on Eaviu-1 (setting [1]); 32 µg/mL (≈ 43.6 µM) in the assay with Pdist-1 (setting [1]); 0.125 µg/mL (≈ 0.17 µM) with Bbifi-1 (setting [1]).

As for `C[C@@H](O)[C@H]1C(=O)N2C(C(=O)O)=C(SCCN=CN)C[C@H]12` [Imipenem], in the assay on Pdist-1 (setting [1]), the MIC was 16 µg/mL (≈ 53.4 µM).

On to `NC[C@H]1O[C@H](O[C@H]2[C@H](O)[C@@H](O[C@H]3O[C@H](CO)[C@@H](O)[C@H](N)[C@H]3O)[C@H](N)C[C@@H]2N)[C@H](O)[C@@H](O)[C@@H]1O` [Kanamycin], for which the MIC with Lsali-1 was 256 µg/mL (≈ 528 µM).

Turning to `C[C@H]1COc2c(N3CCN(C)CC3)c(F)cc3c(=O)c(C(=O)O)cn1c23` [Levofloxacin], in the assay on Pdist-1 (setting [1]), the MIC turned out to be 8 µg/mL (≈ 22.1 µM).

For `CO[C@H]1/C=C/O[C@@]2(C)Oc3c(C)c(O)c4c(O)c(c(/C=N/N5CCN(C)CC5)c(O)c4c3C2=O)NC(=O)/C(C)=C\C=C\[C@H](C)[C@H](O)[C@@H](C)[C@@H](O)[C@@H](C)[C@H](OC(C)=O)[C@@H]1C` [Rifampicin], the MIC with Pdist-1 (setting [1]) is under 0.125 µg/mL.

Take `[H]/N=C(/N)N[C@H]1[C@H](O)[C@@H](O)[C@H](O[C@@H]2O[C@@H](C)[C@](O)(C=O)[C@H]2O[C@@H]2O[C@@H](CO)[C@H](O)[C@@H](O)[C@@H]2NC)[C@@H](N/C(N)=N\[H])[C@@H]1O` [Streptomycin]: the MIC in the assay on Lsali-1 is 128 µg/mL (≈ 220 µM); with Lferm-1 (setting [1]) it was 0.125 µg/mL (≈ 0.215 µM); with Eaviu-1 (setting [1]), 128 µg/mL (≈ 220 µM); with Pdist-1 (setting [1]), under 0.125 µg/mL; in the assay with Bbifi-1 (setting [1]) it was 128 µg/mL (≈ 220 µM).

For `CN(C)[C@@H]1C(O)=C(C(N)=O)C(=O)[C@@]2(O)C(O)=C3C(=O)c4c(O)cccc4[C@@](C)(O)[C@H]3C[C@@H]12` [Tetracycline], the MIC was 0.5 µg/mL (≈ 1.13 µM) in the assay on Lsali-1; under 0.125 µg/mL with Lferm-1 (setting [1]); 0.5 µg/mL (≈ 1.13 µM) in the assay on Eaviu-1 (setting [1]); 8 µg/mL (≈ 18 µM) in the assay with Pdist-1 (setting [1]); 0.125 µg/mL (≈ 0.281 µM) in the assay on Bbifi-1 (setting [1]).

Regarding `CN[C@H](CC(C)C)C(=O)N[C@H]1C(=O)N[C@@H](CC(N)=O)C(=O)N[C@H]2C(=O)N[C@H]3C(=O)N[C@H](C(=O)N[C@H](C(=O)O)c4cc(O)cc(O)c4-c4cc3ccc4O)[C@H](O)c3ccc(c(Cl)c3)Oc3cc2cc(c3O[C@@H]2O[C@H](CO)[C@@H](O)[C@H](O)[C@H]2O[C@H]2C[C@](C)(N)[C@H](O)[C@H](C)O2)Oc2ccc(cc2Cl)[C@H]1O` [Vancomycin], the minimum inhibitory concentration (MIC) with Lferm-1 amounted to 0.125 µg/mL (≈ 0.0863 µM); in the assay on Eaviu-1, 2 µg/mL (≈ 1.38 µM); in the assay on Pdist-1, 8 µg/mL (≈ 5.52 µM); in the assay on Bbifi-1, 1 µg/mL (≈ 0.69 µM).

For the compound `CN(C)C(=O)C(CCN1CCC(O)(c2ccc(Cl)cc2)CC1)(c1ccccc1)c1ccccc1` [loperamide], in the assay on colon injury, the “colon histopathological observation (HE staining)” value is “the colon structure was relatively intact, mucosal epithelial cells showed no significant necrosis, the number of goblet cells was significantly increased, and only a small amount of lymphocyte infiltration was observed in the lamina propria”.

Gentamicin: the “MIC against Lsali-1” value in the assay on Lsali-1 turned out to be 16 µg/mL. Moreover, in the assay on Lferm-1 (setting [1]), the “MIC against Lferm-1” value worked out at 0.125 µg/mL. Besides, in the assay with Eaviu-1 (setting [1]), the “MIC against Eaviu-1” value amounted to 8 µg/mL. In addition, the “MIC against Pdist-1” value with Pdist-1 (setting [1]) is under 0.125 µg/mL. Moreover, the “MIC against Bbifi-1” value in the assay with Bbifi-1 (setting [1]) was 8 µg/mL.

Turning to Penicillin, the “MIC against Pdist-1” value against Pdist-1 (setting [1]) was determined as 8 µg/mL.
